Broadly, the Ki is the dissociation constant of the complex between target and ligand, obtained from inhibition or displacement. As a reminder, the IC50 is the concentration at which inhibition is half-maximal.

Experiment [1] addresses Glutamate NMDA receptor. As to the kind of experiment: In vitro radioligand binding assay for the N-methyl-D-aspartate glutamate receptor is performed using [3H]MK-801 and rat brain membrane suspensions.
Experiment [2] can be described thus: Binding assay for the sigma receptor sites is performed by utilizing [3H]N,N-di-o-tolylguanidine ([3H]DTG) and guinea pig brain membrane suspensions.

Structures can show the parent of a compound that is named as a salt.

As to `CCc1cccc(NC(=N)Nc2ccccc2CC)c1`, the affinity in experiment [1] corresponds to a Ki of 0.35 µM.

`CCc1cccc(N(C)C(=N)Nc2cccc(Br)c2)c1` registered a Ki in experiment [1] of 0.081 µM.

`CCc1cccc(N(C)C(=N)Nc2ccccc2C(C)C)c1`: the affinity in experiment [1] corresponds to a Ki of 0.564 µM. In experiment [1], `CCc1cccc(NC(=N)Nc2ccc(Cl)cc2Cl)c1` displayed a Ki of 0.14 µM. `CCc1cccc(N(C)C(=N)Nc2ccc(Cl)cc2)c1` registered a Ki in experiment [1] of 3.34 µM. In turn, `CCc1cccc(NC(=N)Nc2ccccc2C(C)C)c1` gave an inhibitory constant (Ki) in experiment [1] of 0.23 µM. The same measure, in the same setting: next, `CCc1cccc(N(C)C(=N)Nc2cc(CC)cc(CC)c2F)c1`: 0.097 µM. Compound `CCc1cccc(NC(=N)N(C)c2cc(CC)ccc2Cl)c1` had an inhibition constant Ki in experiment [1] of 0.065 µM. Same read-out and setting: for `CCc1cccc(N(C)C(=N)N(C)c2cc(Br)ccc2Br)c1` the value was 0.027 µM. The same measure, in the same setting: for `CCc1cccc(NC(=N)Nc2cccc(Cl)c2Cl)c1` the value was 0.156 µM. Same read-out and setting: next, `CCc1cccc(NC(=N)Nc2cc(C)cc(CC)c2Cl)c1`: 0.077 µM; `CCc1cccc(N(C)C(=N)N(C)c2cc(Cl)ccc2Cl)c1`: 0.072 µM; `CCc1cccc(N(C)C(=N)Nc2ccccc2I)c1`: 0.101 µM.

With `CCc1cccc(NC(=N)Nc2cc(Cl)cc(Cl)c2)c1`, affinity in experiment [1] was put at a Ki of 0.115 µM.

In experiment [1], `CCc1cccc(NC(=N)Nc2cccc(CC)c2)c1` yielded a Ki of 0.129 µM. `CCc1cccc(NC(=N)Nc2cc(SC)cc(CC)c2Cl)c1` displayed a Ki in experiment [1] of 0.0118 µM. Still for that read-out and setting: next, `CCc1cccc(NC(=N)Nc2ccc(Cl)c(Cl)c2)c1`: 0.204 µM; `CCc1cccc(NC(=N)Nc2ccc(Cl)cc2)c1`: 0.738 µM; `CCc1cccc(NC(=N)Nc2c(Cl)cccc2Cl)c1`: 0.133 µM. Compound `CCc1cccc(NC(=N)N(C)c2cccc(CC)c2)c1` came in with an IC50 in experiment [2] of 0.082 µM. For the compound `CCc1cccc(N(C)C(=N)Nc2cc(Cl)ccc2Cl)c1`, the Ki in experiment [1] was 0.065 µM. This counts as double-digit nanomolar. Same read-out and setting: for `CCc1cccc(NC(=N)Nc2cccc(Br)c2)c1` the value was 0.051 µM; for `CCc1cccc(N(C)C(=N)N(C)c2cc(CC)ccc2Cl)c1`, 0.111 µM. `CCc1cccc(NC(=N)Nc2ccccc2Cl)c1` returned a Ki in experiment [1] of 0.249 µM. As for `CCc1cccc(N(C)C(=N)Nc2cc(C)cc(CC)c2Cl)c1`, the Ki in experiment [1] is 0.078 µM.

In experiment [1], `CCc1cccc(N(C)C(=N)Nc2ccc(Cl)c(Cl)c2)c1` returned a Ki of 1.28 µM.

On to `CCc1cccc(N(C)C(=N)Nc2cccc(SC)c2)c1`, for which, in experiment [1], the Ki turned out to be 0.0064 µM. Still for that read-out and setting: next, `CCc1cccc(NC(=N)Nc2cc(CC)cc(CC)c2F)c1`: 0.05 µM. Still for that read-out and setting: for `CCc1cccc(NC(=N)Nc2cc(CC)cc(CC)c2)c1` the value was 0.129 µM; for `CCc1cccc(NC(=N)Nc2cc(CC)cc(CC)c2Br)c1`, 0.029 µM; for `CCc1cccc(NC(=N)Nc2cc(Cl)ccc2Cl)c1`, 0.068 µM. Same read-out and setting: for `CCc1cccc(NC(=N)Nc2cccc(Cl)c2)c1` the value was 0.112 µM.

In experiment [1], `CCc1cccc(N(C)C(=N)Nc2ccccc2Cl)c1` showed a Ki of 0.386 µM.

On to `CCc1cccc(N(C)C(=N)Nc2cccc(Cl)c2)c1`, for which the Ki in experiment [1] was 0.497 µM. On to `CCc1cccc(N(C)C(=N)Nc2ccccc2Br)c1`, for which affinity in experiment [1] was put at a Ki of 0.265 µM. In experiment [1], `CCc1cccc(N(C)C(=N)Nc2cccc(Cl)c2Cl)c1` returned a Ki of 0.116 µM.

`CCc1cccc(NC(=N)Nc2ccccc2C)c1` showed a Ki in experiment [1] of 0.768 µM.

As to `CCc1cccc(N(C)C(N)=Nc2cccc3ccccc23)c1` [APTIGANEL HYDROCHLORIDE], the Ki in experiment [1] amounted to 0.029 µM. Moreover, the concentration for half-maximal inhibition (IC50) in experiment [2] is 2.54 µM.

(Values after ChEMBL document CHEMBL1130271, “Synthesis and pharmacological evaluation of N-(2,5-disubstituted phenyl)-N'-(3-substituted phenyl)-N'-methylguanidines as N-methyl-D-aspartate receptor ion-channel blockers” (J Med Chem, 1997).)
